# Measurements published in patent publication US11078251B2, “T cell receptors (TCR) and uses thereof for the diagnosis and treatment of diabetes” (INSERM (INSTITUT NATIONAL DE LA SANTÉ ET DE LA RECHERCHE …, priority 2015, dated 2021).
# pKd: −log10 of the molar value. No end group written: not given here.
# Assays:
# [1] = test system: lytic activity of D222D clone 2 against peptide-pulsed LCL target cells; assay: Cytotoxic mechanism: ZnT8-specific lysis of LCL targets by D222D clone 2 in the presence of inhibitors; assay type: cell-based, human; details: 4 h co-culture; concanamycin A 100 nM, brefeldin A 5 μg/ml, anti-FasL mAb 5 μg/ml
# Description: FIG. 6. […]; left to right). Live FarRed^+ target cells were counted at the end of the culture and normalized to a fixed amount of beads added to each well. Percent lysis is noted for each dot plot, calculated as 100×(live targets cultured alone)−(live targets in the presence of T cells)/(live targets cultured alone). B. Lysis of LCL targets pulsed with the indicated peptides and cultured with D222D clones at different E/T ratios. Percent lysis was calculated as above and depicted as mean±SEM of two independent experiments with clone 2 and 3, with data depicted in panel (A) used for clone 3. Similar profiles were obtained for clone 1 (not shown). C. ZnT8-specific lysis of peptide-pulsed LCL target cells co-cultured for 4 h with D222D clone 2 without inhibitors (−) or in the presence of concanamycin A (CMA, 100 nM), brefeldin A (BFA, 5 μg/ml), anti-FasL mAb (aFasL, clone NOK-1; 5 μg/ml) or IgG1 isotype control. *p<0.05 by Wilcoxon signed-rank test. Results are mean±SEM of triplicate measurements from one representative experiment out two performed.
# LCL pulsed with 10 μM of the indicated peptide, K562-A2/ZnT8 or K562/A2 target cells were labeled with CellTrace FarRed (Life Technologies) and dispensed in 96-well flat-bottom plates at 10^5/well. Different numbers of CFSE-labeled T cells were added and co-cultured for 6-24 h, as indicated. […]
# [2] = target: recombinant HLA-A2 molecules (Homo sapiens, UniProt P04439, D140Y/D185E/D98H/E176V/E277Q/G131W/G231S/I119V/I121R/I166T/I218V/N151K/N90K/P208A/P217A/Q86G/Q94H/R138H/R169H); assay: Affinity and stability measurements of recombinant HLA-A2 molecules complexed with peptide; assay type: binding; details: recombinant HLA-A2 complexed with peptide; data not shown
# [3] = target: recombinant HLA-A2 molecules (Homo sapiens, UniProt P04439, /I119V/I121R/I166T/I218V/N151K/N90K/P208A/P217A/Q86G/Q94H/R138H/R169H); assay: as above; assay type: binding
Compound,inhibition of lytic activity [1],also measured
C[C@H]1CCC/C=C/[C@@H]2C[C@H](O)C[C@H]2[C@H](O)/C=C/C(=O)O1 [brefeldin A],not,–
C/C=C/[C@H]1O[C@@](O)([C@@H](C)[C@H](O)[C@H](C)[C@H]2OC(=O)/C(OC)=C/C(C)=C/[C@@H](C)[C@@H](O)[C@@H](CC)[C@@H](O)[C@H](C)C/C(C)=C/C=C/[C@@H]2OC)C[C@@H](O[C@H]2C[C@@H](O)[C@H](OC(N)=O)[C@@H](C)O2)[C@@H]1C [concanamycin A],completely inhibited,–
AVAANIVLTV [ZnT8185-194],–,pKd [2]: 6.68
VAANIVLTV [ZnT8186-194],–,pKd [3]: 7.82
